The IC50 is the concentration that gives 50% inhibition. As usually defined, the inhibition is the percentage by which the read-out fell short of the control.

Test [1] in a line: Antitumor activity against human UCI 101 ovarian cells xenografted in BALB/c mouse assessed as survival of mouse at 8 mg/kg, ip qod followed by six doses at 5 mg/kg qod measured upto 180 days (reference value: 0 (50 days)). The format is functional. Particulars: UCI101, ip, 4320 h, time 180 day. (In general: A xenograft is tissue or cells of one species grown in another, often human tumour cells in immunodeficient mice.)

The subject of the next test is SK-N-SH. Briefly: Cytotoxicity against human SK-N-SH cells assessed as reduction in cell viability incubated for 24 hrs by SRB assay. It counts as functional, cell-based.
For another test, the system named is MDA-MB-231. The test can be described thus: Cytotoxicity against human MDA-MB-231 cells assessed as reduction in cell viability incubated for 24 hrs by SRB assay. The format is functional, cell-based. Particulars: MDA-MB-231, 24 h.
The subject of another test is MCF7. The test can be described thus: Cytotoxicity against human MCF7 cells assessed as reduction in cell viability incubated for 24 hrs by SRB assay. The format is functional, cell-based. Particulars: MCF7, 24 h. (In general: The SRB assay estimates cell density from bound dye.)
The next test concerns DU-145. Briefly: Cytotoxicity against human DU-145 cells assessed as reduction in cell viability incubated for 24 hrs by SRB assay. Particulars: DU-145, 24 h. It counts as functional, cell-based.
The test system of the next test is HeLa. The test can be described thus: Cytotoxicity against human HeLa cells assessed as reduction in cell viability incubated for 24 hrs by SRB assay. It counts as functional, cell-based.
In the next test the test system is HCT-116. Briefly: Cytotoxicity against human HCT-116 cells assessed as reduction in cell viability at 10 umol/L incubated for 24 hrs by LDH assay. It counts as functional. Particulars: HCT-116, 24 h, dose 10 µmol/L.

With `CN(C)c1ccc([P+](CCCCl)(c2ccc(N(C)C)cc2)c2ccc(N(C)C)cc2)cc1`, in test [1], the survival at 8 mg/kg stood at 37.5%.
As for `COc1cc(/C=C/C(=O)CC(=O)/C=C/c2ccc(OCCC[P+](c3ccccc3)(c3ccccc3)c3ccccc3)c(OC)c2)ccc1OCCC[P+](c1ccccc1)(c1ccccc1)c1ccccc1`, the IC50 in the test with SK-N-SH was determined as 5.12 µM; with MDA-MB-231, 5.1 µM; in the test on MCF7, 2.31 µM; in the test on DU-145, 5.1 µM; with HeLa, 4.46 µM.
`COc1cc(/C=C/C(=O)CC(=O)/C=C/c2ccc(OCCC[P+](c3ccccc3)(c3ccccc3)c3ccccc3)c(OC)c2)ccc1O`: the IC50 in the test with SK-N-SH was found to be 8.19 µM; in the test on MDA-MB-231, 8.33 µM; with MCF7, 5.31 µM; with DU-145, 8.62 µM; in the test on HeLa it was 7.69 µM.
Regarding `C[n+]1ccc(-c2cc[n+](CCCCCCCCCC[P+](c3ccccc3)(c3ccccc3)c3ccccc3)cc2)cc1`, the inhibition at 10 µM with HCT-116 was over 50%.
For `CN(C)c1ccc([P+](CCCI)(c2ccc(N(C)C)cc2)c2ccc(N(C)C)cc2)cc1`, in test [1], the survival at 8 mg/kg was 12.5%.

The values are drawn from ChEMBL document CHEMBL4699405, “TPP-based mitocans: a potent strategy for anticancer drug design” (RSC Med Chem, 2020).
